Measured values reported in PubChem BioAssay AID248 (DTP/NCI, 2004).
“And” between values parts separate entries of the source, which are not always exact repeats. Equal values may be shown once. Inconclusive results and toxic doses are left out. Cut-off read from the data, not from the text of the source: active = T/C of 150% or more; inactive = T/C below 125%.

Test system: L1210 leukemia ip in BDF1 mice, survival T/C
Assay: NCI In Vivo Anticancer Drug Screen. Data for tumor model L1210 Leukemia (intraperitoneal) in B6D2F1 (BDF1) mice
Details: endpoint: mean survival time, higher = longer survival
Procedure, shortened: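 Mice bearing the transplanted tumor received compound or vehicle. Survival of the treated group was divided by that of the vehicle-treated control group to give the ratio.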

[1] = dose: 50.0 mg/kg/injection, schedule: Q01DX001 (ip), vehicle: carboxymethylcellulose (CMC)
[2] = dose: 100.0 mg/kg/injection, schedule: Q01DX001 (ip), vehicle: carboxymethylcellulose (CMC)
[3] = dose: 200.0 mg/kg/injection, schedule: Q01DX001 (ip), vehicle: carboxymethylcellulose (CMC)
[4] = dose: 6.25 mg/kg/injection, schedule: Q01DX009 (ip), vehicle: saline with Tween-80
[5] = dose: 50.0 mg/kg/injection, schedule: Q01DX009 (ip), vehicle: Klucel (hydroxypropylcellulose) (HPC)
[6] = dose: 400.0 mg/kg/injection, schedule: Q01DX001 (ip), vehicle: carboxymethylcellulose (CMC)
[7] = dose: 100.0 mg/kg/injection, schedule: Q01DX009 (ip), vehicle: Klucel (hydroxypropylcellulose) (HPC)
[8] = dose: 100.0 mg/kg/injection, schedule: Q04DX003 (ip), vehicle: Klucel (hydroxypropylcellulose) (HPC)
[9] = dose: 200.0 mg/kg/injection, schedule: Q01DX009 (ip), vehicle: Klucel (hydroxypropylcellulose) (HPC)
[10] = dose: 200.0 mg/kg/injection, schedule: Q04DX003 (ip), vehicle: Klucel (hydroxypropylcellulose) (HPC)
[11] = dose: 100.0 mg/kg/injection, schedule: Q04DX003 (ip), vehicle: saline with Tween-80
[12] = dose: 200.0 mg/kg/injection, schedule: Q04DX003 (ip), vehicle: saline with Tween-80
[13] = dose: 400.0 mg/kg/injection, schedule: Q04DX003 (ip), vehicle: saline with Tween-80
[14] = dose: 400.0 mg/kg/injection, schedule: Q01DX009 (ip), vehicle: Klucel (hydroxypropylcellulose) (HPC)
[15] = dose: 400.0 mg/kg/injection, schedule: Q04DX003 (ip), vehicle: Klucel (hydroxypropylcellulose) (HPC)
[16] = dose: 100.0 mg/kg/injection, schedule: Q04DX003 (ip), vehicle: saline
[17] = dose: 200.0 mg/kg/injection, schedule: Q04DX003 (ip), vehicle: saline
[18] = dose: 400.0 mg/kg/injection, schedule: Q04DX003 (ip), vehicle: saline
[19] = dose: 12.5 mg/kg/injection, schedule: Q01DX009 (ip), vehicle: saline with Tween-80
[20] = dose: 25.0 mg/kg/injection, schedule: Q01DX009 (ip), vehicle: saline with Tween-80
[21] = dose: 100.0 mg/kg/injection, schedule: Q01DX009 (ip), vehicle: saline with Tween-80
[22] = dose: 200.0 mg/kg/injection, schedule: Q01DX009 (ip), vehicle: saline with Tween-80
[23] = dose: 75.0 mg/kg/injection, schedule: Q01DX001 (ip), vehicle: other

Measured: T/C

CCOC(=O)C(C)F (stereo unspecified)
inactive: [1] 94 % of control | [2] 89 % of control | [3] 89 % of control

CCCCCCCCCCCCN1C(C)=CS/C1=C\C=C\c1scc(C)[n+]1CCCCCCCCCCCC
inactive: dose: 0.78 mg/kg/injection, schedule: Q01DX009 (ip), vehicle: saline with Tween-80 103 % of control | dose: 1.56 mg/kg/injection, schedule: Q01DX009 (ip), vehicle: saline with Tween-80 117 % of control | [4] 90 % of control

CCC(C)[n+]1cc([O-])on1 (stereo unspecified)
inactive: dose: 12.5 mg/kg/injection, schedule: Q01DX009 (ip), vehicle: Klucel (hydroxypropylcellulose) (HPC) 98 % of control | dose: 25.0 mg/kg/injection, schedule: Q01DX009 (ip), vehicle: Klucel (hydroxypropylcellulose) (HPC) 98 % of control | [5] 95 % of control

COC(=O)Cc1cccc(=O)c(O)c1C(=O)OC
inactive: [1] 102 % of control | [2] 102 % of control | [3] 104 % of control | [6] 102 % of control

NC(=O)c1ccccn1
inactive: [5] 98 % of control | dose: 50.0 mg/kg/injection, schedule: Q04DX003 (ip), vehicle: Klucel (hydroxypropylcellulose) (HPC) 100 % of control | [7] 95 % of control | [8] 102 % of control | [9] 87 % of control | [10] 101 % of control and 102 % of control

COc1cccc(-c2c(C(=O)OC(C)(C)C)cc(O)c3ccc(OC)cc23)c1
inactive: [2] 97 % of control | [3] 96 % of control | [6] 97 % of control

CCC(N)(CO)CO
inactive: [11] 98 % of control | [12] 95 % of control | [13] 95 % of control

CC(=O)Nc1ccc(C=O)cc1[N+](=O)[O-]
inactive: [7] 101 % of control | [8] 100 % of control | [9] 104 % of control | [10] 100 % of control | [14] 94 % of control | [15] 100 % of control

COc1ccccc1P(c1ccccc1OC)c1ccccc1OC
inactive: dose: 100.0 mg/kg/injection, schedule: Q01DX009 (ip), vehicle: saline 95 % of control | [16] 113 % of control | dose: 200.0 mg/kg/injection, schedule: Q01DX009 (ip), vehicle: saline 92 % of control | [17] 102 % of control | dose: 400.0 mg/kg/injection, schedule: Q01DX009 (ip), vehicle: saline 98 % of control | [18] 101 % of control

COc1cc2c(cc1OC)C1C(=CCC3c4cc(OC)c(OC)cc4CC[N+]31C)C=C2 (stereo unspecified)
inactive: [4] 95 % of control | [19] 99 % of control | [20] 102 % of control

O=S(=O)(c1ccccc1)N1CC1CBr (stereo unspecified)
inactive: dose: 100.0 mg/kg/injection, schedule: Q01DX001 (ip), vehicle: other 105 % of control | dose: 200.0 mg/kg/injection, schedule: Q01DX001 (ip), vehicle: other 100 % of control | dose: 400.0 mg/kg/injection, schedule: Q01DX001 (ip), vehicle: other 108 % of control

CC(=O)c1ccc(C(C)(C)C)cc1
inactive: [2] 105 % of control | [3] 100 % of control | [6] 100 % of control

CN(C)c1ccc(CN2CCCN(Cc3ccc(N(C)C)cc3)C2c2ccc(N(CCCl)CCCl)cc2)cc1
inactive: [8] 102 % of control | [10] 104 % of control | [15] 100 % of control

COC(=O)C1CC2C(CCC3C(C)(C(=O)OC)CCCC23C)C(=O)C1(O)C(C)C (stereo unspecified)
inactive: [21] 95 % of control | [22] 90 % of control | dose: 400.0 mg/kg/injection, schedule: Q01DX009 (ip), vehicle: saline with Tween-80 91 % of control

CCCC(CCC)NCCOC(=O)c1ccc(N)cc1
inactive: [23] 101 % of control

Cc1cc(Br)c[nH]c1=O
inactive: [11] 98 % of control | [12] 98 % of control | [13] 102 % of control

NNC(=O)CNc1ccccc1F
inactive: dose: 25.0 mg/kg/injection, schedule: Q04DX002 (ip), vehicle: Klucel (hydroxypropylcellulose) (HPC) 113 % of control | dose: 50.0 mg/kg/injection, schedule: Q04DX002 (ip), vehicle: Klucel (hydroxypropylcellulose) (HPC) 102 % of control | dose: 100.0 mg/kg/injection, schedule: Q04DX002 (ip), vehicle: Klucel (hydroxypropylcellulose) (HPC) 102 % of control and 105 % of control

CN1C2CCC1CC(NCCN1CC1)C2 (stereo unspecified)
inactive: dose: 100.0 mg/kg/injection, schedule: Q01DX001 (ip), vehicle: saline 107 % of control

Cc1cc(C)c(Sc2ccc([N+](=O)[O-])c3ccccc23)c(C)c1
inactive: dose: 100.0 mg/kg/injection, schedule: Q01DX001 (ip), vehicle: Klucel (hydroxypropylcellulose) (HPC) 102 % of control | [8] 94 % of control | dose: 200.0 mg/kg/injection, schedule: Q01DX001 (ip), vehicle: Klucel (hydroxypropylcellulose) (HPC) 98 % of control | [10] 100 % of control | dose: 400.0 mg/kg/injection, schedule: Q01DX001 (ip), vehicle: Klucel (hydroxypropylcellulose) (HPC) 95 % of control | [15] 90 % of control

C(=C\C1SCCCS1)/c1ccccc1
inactive: dose: 100.0 mg/kg/injection, schedule: Q04DX002 (ip), vehicle: saline with Tween-80 101 % of control | dose: 200.0 mg/kg/injection, schedule: Q04DX002 (ip), vehicle: saline with Tween-80 114 % of control | dose: 400.0 mg/kg/injection, schedule: Q04DX002 (ip), vehicle: saline with Tween-80 101 % of control

N/C(=N\O)c1cn(C2OC(CO)C(O)C2O)c2ncncc12 (stereo unspecified)
inactive: dose: 25.0 mg/kg/injection, schedule: Q01DX009 (ip), vehicle: saline 123 % of control | dose: 100.0 mg/kg/injection, schedule: Q01DX005 (ip), vehicle: saline 120 % of control

CCN=C(NCC)c1ccc(NC(=O)c2ccc(C(=O)Nc3ccc(C(=NCC)NCC)cc3)c(Cl)c2)cc1
inactive: dose: 1.87 mg/kg/injection, schedule: Q01DX Z (ip), vehicle: carboxymethylcellulose (CMC) 101 % of control | dose: 3.75 mg/kg/injection, schedule: Q01DX Z (ip), vehicle: carboxymethylcellulose (CMC) 97 % of control | dose: 7.5 mg/kg/injection, schedule: Q01DX Z (ip), vehicle: carboxymethylcellulose (CMC) 103 % of control

CCCCCCCCc1ccc(O)c(Cl)c1
inactive: [21] 95 % of control | [22] 96 % of control

CCSC1=NCCS1
inactive: dose: 9.5 mg/kg/injection, schedule: Q01DX001 (ip), vehicle: other 103 % of control | dose: 19.0 mg/kg/injection, schedule: Q01DX001 (ip), vehicle: other 112 % of control | dose: 38.0 mg/kg/injection, schedule: Q01DX001 (ip), vehicle: other 103 % of control | [23] 112 % of control | dose: 150.0 mg/kg/injection, schedule: Q01DX001 (ip), vehicle: other 101 % of control

CON=C1CCC(C(C)(C)C)CC1 (stereo unspecified)
inactive: dose: 75.0 mg/kg/injection, schedule: Q01DX001 (ip), vehicle: carboxymethylcellulose (CMC) 106 % of control

Cc1ccc(S(=O)(=O)N(C)c2ccc(C#N)cc2F)cc1
inactive: [16] 102 % of control | [17] 98 % of control | [18] 102 % of control

C=C=CCCCC
inactive: dose: 75.0 mg/kg/injection, schedule: Q01DX001 (ip), vehicle: saline 101 % of control | dose: 75.0 mg/kg/injection, schedule: Q04DX003 (ip), vehicle: saline 112 % of control | dose: 150.0 mg/kg/injection, schedule: Q01DX001 (ip), vehicle: saline 111 % of control | dose: 150.0 mg/kg/injection, schedule: Q04DX003 (ip), vehicle: saline 104 % of control | dose: 300.0 mg/kg/injection, schedule: Q01DX001 (ip), vehicle: saline 102 % of control | dose: 300.0 mg/kg/injection, schedule: Q04DX003 (ip), vehicle: saline 101 % of control

O=[N+]([O-])c1ccc(O)c(Br)c1
inactive: [4] 95 % of control | [19] 101 % of control | dose: 25.0 mg/kg/injection, schedule: Q01DX009 (ip), vehicle: carboxymethylcellulose (CMC) 90 % of control | [20] 93 % of control

CCCCCCCCNC(=O)CCCCC(=O)NCCCCCCCC
inactive: [7] 91 % of control | [8] 90 % of control | [9] 86 % of control | [10] 90 % of control | [14] 95 % of control | [15] 101 % of control
